Values joined by “and” are separate entries in the source; they are usually repeats but may differ in a detail not shown here. Equal values may be shown once. Read-outs that look alike come from different tables or passages of the source. Ends that are not written are not given here.
Key:
[1] = target: T1, human α-thrombin (Homo sapiens, UniProt P00734); assay: Clotting assay: fibrinogen clotting by human thrombin, concentration doubling the clotting time (DCT) = IC50; format: biochemical
T1 construct: Bovine and human α-thrombins were supplied by Haematologic Technologies Inc (VT, USA); cleaved off efficiently by thrombin to generate the free N-terminus of the A-chain of human thrombin; purchased Haematologic Technologies Inc (VT, USA)
Experimental: The clotting assays were carried out by use of the protocols described previously (DiMaio, J., Gibbs, B., Munn, D., Lefebvre, J., Ni, F., and Konishi, Y. (1990) J. Biol. Chem. 265, 21698-21703; and Witting, J. I., Bourdon, P., Brezniak, D. V., Maraganore, J. M., and Fenton, J. W. (1992) Biochem. J. 283 (Pt 3), 737-743) The assay employs bovine plasma fibrinogen dissolved at 0.1% in 50 mM Tris-Cl, 100 mM NaCl, 0.1% PEG-8000 at pH 7.6 (i.e. the clotting buffer). Each assay mixture contained a certain concentration of the peptide, and the reaction was started by the addition of human thrombin to a final concentration of 0.1 NIH unit/ml. Optical absorbance of the assay mixtures was measured at 420 nm and 37° C. using the Spectramax™ plate reader. The onset clotting time was determined as an intersection of the baseline and the initial slope of the O.D. change as a result of fibrin clot formation. The concentration of a peptide needed to double the clotting time (DCT) was defined as IC50. Peptide concentrations were determined by comparing the O.D.280 values of peptide stock solutions in the clotting buffer (vide supra) with the predicted extinction coefficient for each peptide (Gill, S. C. and von Hippel, P. H. (1989) Anal. Biochem. 182, 319-326).
The peptide concentration for doubling the clotting time (DCT) was defined as the IC50 value.

[2] = target: T1, human α-thrombin; assay: Stability of peptides pre-incubated with thrombin, read by the clotting assay; format: biochemical; conditions: 30 hrs of incubation, 25° C.
Experimental: (§1) The FN22 peptide was incubated with thrombin at 25° C. in order to investigate the stability of the peptide in complex with thrombin. The progress of peptide cleavage by thrombin was monitored and analyzed through the HPLC profiles of the FN22 peptide in the absence or presence of thrombin for different incubation times. […] In the clotting assay, the FN22 peptide at a concentration of 400 nM was premixed with thrombin for different times of incubation before initiating the clotting reaction. The cleavage of the peptide by thrombin is indicated by a reduced clotting time with increasing incubation times. […]
In FIG. 18C, curve (1) represents the clotting assay curve recorded for a freshly-prepared stock solution of thrombin in the absence of peptide inhibitors, curves (2) and (3) represent the clotting curves recorded under the same condition as in (1) except that thrombin stood at 4° C. and 25° C., respectively, for 30 hrs, curves (4) and (5) represent the clotting curves recorded under the same condition as that in (3) except that the FN22 peptide (400 nM, curve 4) and FD22 (100 nM, curve 5) were mixed with thrombin during incubation, and curves (6) and (7) represent the clotting curves recorded under the same condition as that in (3) except that FN22 (400 nM, curve 6) and FD22 (100 nM, curve 7) were freshly-prepared intact peptides. […]

[3] = target: T1, human α-thrombin; assay: Peptide cleavage by thrombin followed by HPLC; format: biochemical
Experimental: Previously reported methods (DiMaio, J., Gibbs, B., Munn; D., Lefebvre, J., Ni, F., and Konishi, Y. (1990) J. Biol. Chem. 265, 21698-21703; and Witting, J. I., Bourdon, P., Brezniak, D. V., Maraganore, J. M., and Fenton, J. W. (1992) Biochem. J. 283 (Pt 3), 737-743) were employed with some modifications (as detailed in the Results section and FIG. 18) to determine whether some bivalent peptides are cleaved by thrombin. Each peptide was dissolved in the clotting buffer at a final concentration of 2.0 μM and incubated at 25° C. with or without 2 μM of human α-thrombin for up to 40 hrs. The samples were then boiled for 2 min to stop the reaction, and centrifuged. The supernatant was acidified by addition of concentrated acetic acid before being loaded on an analytical HPLC C18 column and eluted with a linear gradient of 0%-50% (v/v) acetonitrile.
as §1, with “reaction.” for “reaction. The cleavage of the peptide by thrombin is indicated by a reduced clotting time with increasing incubation times.”

[4] = target: T1, human α-thrombin; assay: Digestion of 15N-labelled FD22 at the Arg(P1)-Pro(P1′) bond by human α-thrombin; format: biochemical; conditions: ~1 mM 15N-labelled peptide, 5 μM human α-thrombin
Experimental: After the peptide was incubated with thrombin at 25° C. for 40 hrs, around 90% of the intact FD22 peptide still remained as shown by use of HPLC analysis (FIG. 18B). In the clotting assay, the FD22 peptide at 100 nM was premixed with thrombin for different times before initiation of clotting. The peptide thus prepared had the clotting time reduced by only 12% after 30 hrs of incubation with thrombin. Indeed, the ^15N-labelled FD22 with a concentration of ˜1 mM (FIG. 16D) was digested completely at the Arg(P1)-Pro(P1′) bond by a 5 μM concentration of human α-thrombin only after more than 60 hrs of incubation.

[5] = target: T1, human α-thrombin; assay: Inhibition of the amidolytic activity of thrombin (Tos-Gly-Pro-Arg-p-nitroanilide hydrolysis); format: biochemical
Experimental: Kinetics of thrombin-catalyzed hydrolysis of the chromogenic substrate Tos-Gly-Pro-Arg-p-nitroanilide were followed by absorbance at 405 nm on a Spectramax plate reader thermostated at either 25° C. or 37° C. according to the method of Maragnore et al (supra). The concentrations of Tos-Gly-Pro-Arg-p-nitroanilide ranged from 2 to 400 μM. Initial rates were calculated under conditions of <15% hydrolysis of the total substrate. The KM and Vmax values were calculated accordingly and kcat values were determined by dividing Vmax by the enzyme (thrombin) concentration. The inhibition assays were performed in the clotting buffer with a certain fixed concentration of α-thrombin (˜0.3 nM) such that linear progress curves were achieved within at least 15 min in the absence of the inhibition. The total volume of the solution was fixed at 200 μl. Reactions were initiated by addition of the chromogenic substrate to the wells containing thrombin and a certain concentration of the peptide inhibitors premixed for less than 2 min. Alternatively, the substrate was first mixed with the peptide inhibitor and the total volume was adjusted to 120 μL using the clotting buffer. Eighty microliters of human α-thrombin in the clotting buffer (˜0.3 nM final concentration) was added to initiate the reaction. The concentration of the peptides ranged from 0.5 nM to 10 μM. Kinetics data from initial rate experiments were used to construct Lineweaver-Burke plot; i.e. the relationship of (substrate concentration)^−1 versus (initial velocity)^−1 which. were analysed by linear regression with MicroCal Origin 4.1 program (MicroCal, MD) or using the GraphPad Prism software. The Ki values of the inhibitors were determined using the equation: Ki=[I]/{(SL0/SL1)−1}, where
[I] is the inhibitor concentration,
SL0 is the slope of the reaction in the absence of inhibitors, and
SL1 is the slope of the reaction in the presence of the inhibitor.
Alternatively, Dixon plots of inverse velocity versus the inhibitor concentrations were generated with the Sigmaplot™ software. Every Dixon plot contained an array of data corresponding to different substrate concentrations and the Ki values were determined from the intersections. Following Peptide Cleavage by HPLC

[6] = target: T1, human α-thrombin; conditions: data from the published reports of DiMaio and Maraganore; read-out: Amidolytic assay (Ki); cited from earlier work
[7] = target: T1, human α-thrombin; conditions: data from the published reports of DiMaio and Maraganore; read-out: Clotting assay, 37° C. (IC50); cited from earlier work
[8] = Amidolytic assay, 25° C. (Ki, nM), Tos-Gly-Pro-Arg-pNA, 25° C.

In the case of CC[C@H](C)[C@H](NC(=O)[C@H](CCC(=O)O)NC(=O)[C@H](CCC(=O)O)NC(=O)[C@H](Cc1ccccc1)NC(=O)[C@H](CC(=O)O)NC(=O)CNC(=O)[C@H](CC(=O)O)NC(=O)[C@H](CC(N)=O)NC(=O)[C@H](Cc1c[nH]cn1)NC(=O)[C@H](CO)NC(=O)[C@H](CCC(N)=O)NC(=O)[C@@H]1CCCN1C(=O)[C@H](CCCNC(=N)N)NC(=O)[C@@H]1CCCN1C(=O)[C@H](CC(=O)O)NC(=O)[C@@H](N)Cc1ccccc1)C(=O)N1CCC[C@H]1C(=O)N[C@@H](CCC(=O)O)C(=O)N[C@@H](CCC(=O)O)C(=O)N[C@@H](Cc1ccc(O)cc1)C(=O)N[C@@H](CC(C)C)C(=O)N[C@@H](CCC(N)=O)C(=O)O [FD22], the IC50 [1] is reported as ~50 nM and 45 nM and ~45 nM, the “reduction of clotting time” value ([2]; peptide 100 nM premixed with thrombin) is reported as 12% and the intact peptide remaining ([3]; incubated with thrombin at 25° C. for 40 hrs) is reported as “around 90%”. For the same compound, the “incubation time until complete digestion at the Arg(P1)-Pro(P1′) bond” value [4] was “more than 60 hrs” and the Ki [5, 8] was ~55 nM.

With CC[C@H](C)[C@H](NC(=O)[C@H](CCC(=O)O)NC(=O)[C@H](CCC(=O)O)NC(=O)[C@H](Cc1ccccc1)NC(=O)[C@H](CC(=O)O)NC(=O)CNC(=O)[C@H](CC(=O)O)NC(=O)[C@H](CC(N)=O)NC(=O)[C@H](Cc1c[nH]cn1)NC(=O)[C@H](CO)NC(=O)[C@H](CCC(N)=O)NC(=O)[C@@H]1CCCN1C(=O)[C@H](CCCNC(=N)N)NC(=O)[C@@H]1CCCN1C(=O)[C@H](CC(N)=O)NC(=O)[C@@H](N)Cc1ccccc1)C(=O)N1CCC[C@H]1C(=O)N[C@@H](CCC(=O)O)C(=O)N[C@@H](CCC(=O)O)C(=O)N[C@@H](Cc1ccc(O)cc1)C(=O)N[C@@H](CC(C)C)C(=O)N[C@@H](CCC(N)=O)C(=O)O [FN22] the “reduction of clotting time compared to the control” value ([2]; peptide 400 nM premixed with thrombin) was 41%, the “peptide cleaved by thrombin” value ([3]; 2.0 μM peptide, 2.0 μM human α-thrombin, 25° C., after 40 hours) was “about 30%” and the Ki [5, 8] was 80 ± 10 nM. For the same compound, the “kcat in the presence of the peptide” value ([5]; FN22 at 80 μM, 130 without peptide) was 115 s⁻¹ and the mode of inhibition ([5]; substrate concentrations near the KM) was “competitive”.

In the case of CC[C@H](C)[C@H](NC(=O)[C@H](CCC(N)=O)NC(=O)[C@@H]1CCCN1C(=O)[C@H](CCCNC(=N)N)NC(=O)[C@@H]1CCCN1C(=O)[C@H](CCC(N)=O)NC(=O)[C@@H](NC(=O)[C@H](CO)NC(=O)CN)[C@@H](C)CC)C(=O)N[C@@H](Cc1c[nH]cn1)C(=O)N[C@@H](CC(N)=O)C(=O)N[C@@H](CC(=O)O)C(=O)NCC(=O)N[C@@H](CC(=O)O)C(=O)N[C@@H](Cc1ccccc1)C(=O)N[C@@H](CCC(=O)O)C(=O)N[C@@H](CCC(=O)O)C(=O)N[C@H](C(=O)N1CCC[C@H]1C(=O)N[C@@H](CCC(=O)O)C(=O)N[C@@H](CCC(=O)O)C(=O)N[C@@H](Cc1ccc(O)cc1)C(=O)N[C@@H](CC(C)C)C(=O)N[C@@H](CCC(N)=O)C(=O)O)[C@@H](C)CC [GS-IQ22-I], the IC50 [1] is reported as 10 ± 1 nM, the Ki [5, 8] is reported as > 400 nM and the “amidolytic activity of thrombin in the presence of the peptide” value ([5]; up to 400 nM in concentration) is reported as “little affected”.

With FDPRPGGGGCNGDFEEIPEEYL [FD21-4GN] the IC50 ([1]; peptide concentration doubling the clotting time (DCT), 37° C., '>' values: no delay in clotting time up to the concentration shown, read-out: Clotting assay, 37° C. (IC50)) was 208 ± 8 nM and the Ki ([5]; read-out: Amidolytic assay, 25° C. (Ki), Tos-Gly-Pro-Arg-pNA, 25° C.) was 300 ± 20 nM.

With FNPRP [FN, FNPRP] the IC50 [1] was > 100000 nM, the “IC50 values (in words)” value ([1]; clotting assay, FNPRP peptide alone) was “submillimolar” and the Ki [5, 8] was > 2000 nM.

With WDPRPQLHNDGDFEPIPEEYLQ [WD22-L-P] the IC50 [1] was ~26 nM and 26 nM and the Ki [5, 8] was 39 ± 4 nM.

With WDPRPQRHNDGDFEPIPEEYLQ [WD22-R-P] the IC50 [1] was ~6.7 nM and 6.7 nM and the Ki [5] was 171 ± 12 nM.

Compound WDPRPQRHNDGDYEPIPEEYLQ [WD22-R-YP] has an IC50 [1] of 4.5 ± 2 nM and a Ki [5] of 358 ± 23 nM.

In the case of dFPRPQSHNDGDFEEIPEEYL [P53^(e)], the Ki [6] is given as 2.8 ± 0.9 nM and the IC50 [7] is given as 4.1 ± 0.8 nM.
